Laboratory results taken from ChEMBL document CHEMBL4823291, “Discovery of 5,6,7,8-tetrahydropyrido[3,4-d]pyrimidine derivatives as novel selective Axl inhibitors” (Bioorg Med Chem Lett, 2021).

Legend:
[1] = target: T1, Tyrosine-protein kinase Mer (Homo sapiens, UniProt Q12866); experiment: Inhibition of Mer (unknown origin) by cell free assay
T1 sequence (Q12866 whole entry): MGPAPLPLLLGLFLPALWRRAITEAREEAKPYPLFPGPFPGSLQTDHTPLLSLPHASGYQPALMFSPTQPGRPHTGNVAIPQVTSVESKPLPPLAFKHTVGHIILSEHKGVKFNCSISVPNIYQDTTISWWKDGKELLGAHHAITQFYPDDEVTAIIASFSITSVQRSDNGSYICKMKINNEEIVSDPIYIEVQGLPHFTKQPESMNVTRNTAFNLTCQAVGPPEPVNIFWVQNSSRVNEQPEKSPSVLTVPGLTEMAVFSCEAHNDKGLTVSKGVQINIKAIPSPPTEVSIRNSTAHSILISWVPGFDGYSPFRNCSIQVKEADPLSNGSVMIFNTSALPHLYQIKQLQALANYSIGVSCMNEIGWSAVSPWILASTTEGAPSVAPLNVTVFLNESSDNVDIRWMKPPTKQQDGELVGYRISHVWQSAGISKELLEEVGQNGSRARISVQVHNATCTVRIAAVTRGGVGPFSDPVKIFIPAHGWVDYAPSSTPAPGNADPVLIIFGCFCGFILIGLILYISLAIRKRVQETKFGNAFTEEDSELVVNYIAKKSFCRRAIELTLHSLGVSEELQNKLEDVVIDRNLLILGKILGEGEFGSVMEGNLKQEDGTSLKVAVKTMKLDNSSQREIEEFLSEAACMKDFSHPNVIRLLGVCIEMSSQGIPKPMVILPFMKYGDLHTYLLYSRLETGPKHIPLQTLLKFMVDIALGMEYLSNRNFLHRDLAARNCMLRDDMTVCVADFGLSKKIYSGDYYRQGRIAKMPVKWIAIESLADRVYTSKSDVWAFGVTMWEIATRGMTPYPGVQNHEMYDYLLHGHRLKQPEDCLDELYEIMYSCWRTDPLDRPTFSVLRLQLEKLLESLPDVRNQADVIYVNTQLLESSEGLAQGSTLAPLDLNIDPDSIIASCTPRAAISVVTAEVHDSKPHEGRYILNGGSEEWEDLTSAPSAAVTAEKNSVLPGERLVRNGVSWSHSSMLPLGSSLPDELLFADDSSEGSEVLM

BaF3 = experiment: Ratio of IC50 for Mer in mouse BaF3 cells to IC50 for Axl in mouse BaF3 cells; type: cell-based
[2] = target: T2, Tyrosine-protein kinase receptor UFO (Homo sapiens, UniProt P30530); experiment: Inhibition of Axl (unknown origin) by cell free assay
T2 sequence (P30530 whole entry): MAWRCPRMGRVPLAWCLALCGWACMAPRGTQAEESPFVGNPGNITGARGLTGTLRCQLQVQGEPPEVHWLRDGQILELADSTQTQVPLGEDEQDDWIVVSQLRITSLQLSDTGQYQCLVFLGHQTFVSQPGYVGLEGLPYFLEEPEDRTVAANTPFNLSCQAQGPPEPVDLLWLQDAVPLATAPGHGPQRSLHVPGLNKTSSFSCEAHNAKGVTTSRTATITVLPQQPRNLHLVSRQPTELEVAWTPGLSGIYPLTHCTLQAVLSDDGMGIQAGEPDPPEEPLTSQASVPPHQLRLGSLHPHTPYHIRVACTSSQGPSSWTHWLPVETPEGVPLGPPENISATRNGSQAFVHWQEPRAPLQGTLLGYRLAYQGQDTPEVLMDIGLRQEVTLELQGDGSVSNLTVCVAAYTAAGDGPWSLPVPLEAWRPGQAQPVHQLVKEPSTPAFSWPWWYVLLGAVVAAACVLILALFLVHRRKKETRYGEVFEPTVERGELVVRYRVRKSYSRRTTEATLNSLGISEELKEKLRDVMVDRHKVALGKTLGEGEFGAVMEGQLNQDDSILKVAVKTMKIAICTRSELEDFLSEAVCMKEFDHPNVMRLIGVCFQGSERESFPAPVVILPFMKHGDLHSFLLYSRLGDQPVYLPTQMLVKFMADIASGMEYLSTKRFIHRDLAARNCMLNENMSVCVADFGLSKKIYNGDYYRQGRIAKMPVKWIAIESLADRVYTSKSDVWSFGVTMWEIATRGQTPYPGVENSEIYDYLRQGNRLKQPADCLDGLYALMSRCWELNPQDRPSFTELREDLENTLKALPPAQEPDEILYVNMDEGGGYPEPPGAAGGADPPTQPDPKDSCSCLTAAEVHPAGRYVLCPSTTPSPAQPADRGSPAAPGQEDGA

[3] = target: T3, Tyrosine-protein kinase receptor UFO (Mus musculus, UniProt Q00993); experiment: Inhibition of Axl in mouse BaF3 cells; type: cell-based
T3 sequence (Q00993 whole entry): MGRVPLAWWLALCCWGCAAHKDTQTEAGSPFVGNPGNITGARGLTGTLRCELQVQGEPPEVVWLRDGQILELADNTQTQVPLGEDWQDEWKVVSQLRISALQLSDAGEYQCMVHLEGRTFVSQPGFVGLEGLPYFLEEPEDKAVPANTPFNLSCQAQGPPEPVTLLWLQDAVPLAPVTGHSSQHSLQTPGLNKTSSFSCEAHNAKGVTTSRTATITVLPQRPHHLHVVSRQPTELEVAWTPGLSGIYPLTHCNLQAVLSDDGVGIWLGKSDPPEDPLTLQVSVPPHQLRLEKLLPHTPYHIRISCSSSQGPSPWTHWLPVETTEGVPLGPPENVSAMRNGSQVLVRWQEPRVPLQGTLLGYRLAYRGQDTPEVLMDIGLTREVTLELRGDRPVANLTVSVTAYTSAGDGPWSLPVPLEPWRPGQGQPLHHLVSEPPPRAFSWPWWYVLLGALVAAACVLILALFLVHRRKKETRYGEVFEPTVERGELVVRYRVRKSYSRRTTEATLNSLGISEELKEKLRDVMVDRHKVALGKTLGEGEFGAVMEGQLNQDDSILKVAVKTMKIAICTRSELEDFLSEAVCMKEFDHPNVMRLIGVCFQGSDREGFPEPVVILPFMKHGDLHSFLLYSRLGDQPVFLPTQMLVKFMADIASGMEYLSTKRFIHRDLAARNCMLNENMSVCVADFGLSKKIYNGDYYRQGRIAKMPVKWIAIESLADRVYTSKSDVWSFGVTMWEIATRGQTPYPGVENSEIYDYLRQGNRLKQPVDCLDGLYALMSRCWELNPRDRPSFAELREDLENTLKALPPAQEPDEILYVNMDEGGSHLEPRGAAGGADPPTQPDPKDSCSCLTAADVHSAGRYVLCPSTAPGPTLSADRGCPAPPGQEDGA

[4] = target: T4, Tyrosine-protein kinase Mer (Mus musculus, UniProt Q60805); experiment: Inhibition of Mer in mouse BaF3 cells; type: cell-based
T4 sequence (Q60805 whole entry): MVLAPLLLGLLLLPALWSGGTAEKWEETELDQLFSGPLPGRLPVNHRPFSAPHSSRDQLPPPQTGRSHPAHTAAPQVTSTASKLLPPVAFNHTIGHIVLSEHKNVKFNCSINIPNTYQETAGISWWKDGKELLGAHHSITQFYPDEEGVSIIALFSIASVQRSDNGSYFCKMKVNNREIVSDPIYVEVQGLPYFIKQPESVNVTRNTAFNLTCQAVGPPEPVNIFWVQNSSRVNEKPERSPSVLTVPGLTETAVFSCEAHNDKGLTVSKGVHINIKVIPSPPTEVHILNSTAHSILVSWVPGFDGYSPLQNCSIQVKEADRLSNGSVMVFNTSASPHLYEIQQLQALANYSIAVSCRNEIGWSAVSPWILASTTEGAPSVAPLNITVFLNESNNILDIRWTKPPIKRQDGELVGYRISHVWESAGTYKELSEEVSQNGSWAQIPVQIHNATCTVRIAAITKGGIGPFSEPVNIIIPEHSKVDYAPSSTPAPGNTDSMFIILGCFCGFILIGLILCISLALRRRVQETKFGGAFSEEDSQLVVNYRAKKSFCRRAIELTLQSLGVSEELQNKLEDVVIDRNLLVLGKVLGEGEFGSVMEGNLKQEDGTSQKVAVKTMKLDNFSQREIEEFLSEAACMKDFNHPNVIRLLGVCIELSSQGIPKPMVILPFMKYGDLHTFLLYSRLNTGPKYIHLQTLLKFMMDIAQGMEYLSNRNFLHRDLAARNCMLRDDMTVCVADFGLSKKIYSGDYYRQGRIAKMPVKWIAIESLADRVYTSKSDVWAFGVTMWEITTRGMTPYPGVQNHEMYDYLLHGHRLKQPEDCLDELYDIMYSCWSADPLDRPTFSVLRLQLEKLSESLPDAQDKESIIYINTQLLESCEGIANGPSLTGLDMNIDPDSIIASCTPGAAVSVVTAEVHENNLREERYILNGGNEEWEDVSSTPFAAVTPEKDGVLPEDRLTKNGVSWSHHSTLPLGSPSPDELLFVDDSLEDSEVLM

Homo sapiens = species on record: Homo sapiens; experiment: Ratio of IC50 for Mer (unknown origin) to IC50 for Axl (unknown origin)

Row | SMILES | IC50 [1] [nM] | IC50 [2] [nM] | IC50 [3] [nM] | IC50 [4] [nM] | Ratio IC50 (Homo sapiens) | Ratio IC50 (BaF3)
1 | CN1CCC(CN2CCc3c(ncnc3Oc3ccc(NC(=O)c4cn(C5CCCC5)c(=O)n(-c5ccc(F)cc5)c4=O)cc3F)C2)CC1 | 51 | 2.7 | 7.9 | 34 | 19 | 4.3
2 | CC(C)n1cc(C(=O)Nc2ccc(Oc3ncnc4c3CCN(C(=O)CC3CCN(C)CC3)C4)c(F)c2)c(=O)n(-c2ccc(F)cc2)c1=O | 88 | 4.3 | 29 | 150 | 20 | 5.2
3 | CC(C)n1cc(C(=O)Nc2ccc(Oc3ncnc4c3CC(=O)N4)c(F)c2)c(=O)n(-c2ccc(F)cc2)c1=O | 76 | 26 | 84 | 280 | 2.9 | 2.9
4 | CC(C)n1cc(C(=O)Nc2ccc(Oc3ncnc4c3CN(C(=O)C3CC3)C4)c(F)c2)c(=O)n(-c2ccc(F)cc2)c1=O | < 4.1 | 2.7 | 12 | 34 | < 1.5 | 2.8
5 | CC(C)n1cc(C(=O)Nc2ccc(Oc3ncnc4c3CCN(CC(=O)N3CCN(C)CC3)C4)c(F)c2)c(=O)n(-c2ccc(F)cc2)c1=O | 210 | 9.5 | 78 | 370 | 22 | 4.7
6 | CC(C)n1cc(C(=O)Nc2ccc(Oc3ncnc4c3CCN(C(=O)CCN3CCCC3)C4)c(F)c2)c(=O)n(-c2ccc(F)cc2)c1=O | 240 | 7.8 | 74 | 290 | 31 | 3.9
7 | CC(C)n1cc(C(=O)Nc2ccc(Oc3ncnc4c3CCN(C3CN(C)C3)C4)c(F)c2)c(=O)n(-c2ccc(F)cc2)c1=O | 27 | 3.8 | 5.3 | 24 | 7.1 | 4.5
8 | CC(C)n1cc(C(=O)Nc2ccc(Oc3ncnc4c3CN(CC3CCN(C)CC3)C4)c(F)c2)c(=O)n(-c2ccc(F)cc2)c1=O | 69 | 6.2 | 32 | 80 | 11 | 2.5
9 | CC(C)n1cc(C(=O)Nc2ccc(Oc3ncnc4c3CN(C(=O)CCN3CCCC3)C4)c(F)c2)c(=O)n(-c2ccc(F)cc2)c1=O | 160 | 15 | 120 | 280 | 11 | 2.3

The next lines start with results.

Row | IC50 [1] [nM] | IC50 [2] [nM] | IC50 [3] [nM] | IC50 [4] [nM] | Ratio IC50 (Homo sapiens) | SMILES | Ratio IC50 (BaF3)
10 | 34 | 3.5 | 20 | 79 | 9.7 | CC(C)n1cc(C(=O)Nc2ccc(Oc3ncnc4c3CCN(C3CCN(CC5CC5)CC3)C4)c(F)c2)c(=O)n(-c2ccc(F)cc2)c1=O | 4
11 | > 1000 | 5.3 | 100 | 440 | > 189 | CC(C)n1cc(C(=O)Nc2ccc(Oc3ncnc4c3CCN(C(=O)C3CCC3)C4)c(F)c2)c(=O)n(-c2ccc(F)cc2)c1=O | 4.4
12 | 62 | 1.9 | 8.4 | 51 | 33 | CN1CCC(CN2CCc3c(ncnc3Oc3ccc(NC(=O)c4cn(CC5CC5)c(=O)n(-c5ccc(F)cc5)c4=O)cc3F)C2)CC1 | 6.1
13 | 200 | 14 | 66 | 370 | 14 | CC(C)n1cc(C(=O)Nc2ccc(Oc3ncnc4c3CCN(CC(=O)N3CCC3)C4)c(F)c2)c(=O)n(-c2ccc(F)cc2)c1=O | 5.6
14 | 830 | 32 | 770 | 4110 | 26 | CN1CCC(CN2CCc3c(ncnc3Oc3ccc(NC(=O)c4cn(C5CC5)c(=O)n(-c5ccc(F)cc5)c4=O)cc3F)C2)CC1 | 5.3
15 | 170 | 17 | 130 | 910 | 10 | CC(C)n1cc(C(=O)Nc2ccc(Oc3ncnc4c3CCN(C(=O)CN3CCOCC3)C4)c(F)c2)c(=O)n(-c2ccc(F)cc2)c1=O | 7
